From PMC12186257, “Serendipitous and Systematic Chemoproteomic Discovery of MBLAC2, HINT1, and NME1‑4 Inhibitors from Histone Deacetylase-Targeting Pharmacophores” (ACS Chemical Biology, 2025) come the findings set out here.

Experiment [1] has as its target T1, PDE1C (Homo sapiens, UniProt Q14123).
T1 construct: endogenous in cells
Kind of experiment: Kinobead competition assay. Particulars: dose-dependent binding; read-out: affinity PDE1C. An excerpt: (§1) The binding of KV-24 and KV-30 to the nucleotide-binding pocket raises the question of whether these compounds also target other nucleotide-binding proteins, such as kinases. To evaluate potential off-target effects, we performed Kinobead competition assays. This chemoproteomic approach is conceptually very similar to the one used here in that broad spectrum kinase inhibitors are immobilized on beads. […] PDE1C is a cAMP/cGMP nucleotide-binding protein that features two divalent metal cation cofactors. The hydroxamic acid moiety of KV-24 might chelate these metal cofactors, supporting the hypothesis that KV-24 binds the active site of PDE1C. […] With the help of our chemoproteomic platform, future structure–activity relationship (SAR) libraries based on the KV-24 and KV-30 scaffolds may be explored to improve selectivity toward either HINT1, kinase targets, or PDE1C. […]
(§2) LC-MS/MS. The different sample types were measured with different LC-MS/MS settings. MBLAC2 2-dose competition assays were measured with the Lumos1 setup, MBLAC2 9-dose competition assays were measured with the Lumos2 setup, and kinobeads assays were measured with the Eclipse setup.
(§3) Peptides were analyzed via LC–MS/MS on a Dionex Ultimate3000 nano HPLC coupled to either one of two Orbitrap Fusion Lumos mass spectrometers, or to an Orbitrap Eclipse mass spectrometer, operated via the Thermo Scientific Xcalibur software. […]

Experiment [2] concerns the target T2, MERTK (Homo sapiens, UniProt Q12866).
T2 construct: endogenous in cells
T2 sequence (Q12866 21-999): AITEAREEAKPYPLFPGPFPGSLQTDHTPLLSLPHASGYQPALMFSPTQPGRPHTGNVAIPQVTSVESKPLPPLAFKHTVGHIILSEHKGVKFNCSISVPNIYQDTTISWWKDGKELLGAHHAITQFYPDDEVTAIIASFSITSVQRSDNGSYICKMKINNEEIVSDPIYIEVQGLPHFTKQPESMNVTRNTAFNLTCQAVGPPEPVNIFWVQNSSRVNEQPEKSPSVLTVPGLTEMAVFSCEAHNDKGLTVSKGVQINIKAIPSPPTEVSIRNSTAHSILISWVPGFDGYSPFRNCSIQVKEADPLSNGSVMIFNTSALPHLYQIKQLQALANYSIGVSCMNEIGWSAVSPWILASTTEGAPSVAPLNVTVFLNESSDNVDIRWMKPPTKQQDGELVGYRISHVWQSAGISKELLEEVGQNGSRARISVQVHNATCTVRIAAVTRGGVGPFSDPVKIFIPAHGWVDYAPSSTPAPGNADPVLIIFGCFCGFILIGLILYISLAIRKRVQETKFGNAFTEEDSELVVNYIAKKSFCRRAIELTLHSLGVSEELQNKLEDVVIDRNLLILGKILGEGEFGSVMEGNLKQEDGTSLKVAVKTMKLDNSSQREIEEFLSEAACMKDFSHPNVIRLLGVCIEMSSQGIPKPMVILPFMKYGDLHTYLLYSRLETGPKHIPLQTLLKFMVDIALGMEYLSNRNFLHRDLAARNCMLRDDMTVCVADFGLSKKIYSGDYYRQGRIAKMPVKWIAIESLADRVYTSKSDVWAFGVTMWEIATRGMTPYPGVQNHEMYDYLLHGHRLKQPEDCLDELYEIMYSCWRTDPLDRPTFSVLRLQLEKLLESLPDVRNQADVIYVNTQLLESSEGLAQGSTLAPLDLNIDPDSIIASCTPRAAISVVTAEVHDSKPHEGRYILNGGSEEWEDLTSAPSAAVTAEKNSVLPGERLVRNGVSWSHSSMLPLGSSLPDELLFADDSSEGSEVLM
The experiment can be described thus: Kinobead competition assay. Particulars: only kinase among >190. Format: binding.
Text: as §1, §2, §3

T1 sequence (Q14123 whole entry): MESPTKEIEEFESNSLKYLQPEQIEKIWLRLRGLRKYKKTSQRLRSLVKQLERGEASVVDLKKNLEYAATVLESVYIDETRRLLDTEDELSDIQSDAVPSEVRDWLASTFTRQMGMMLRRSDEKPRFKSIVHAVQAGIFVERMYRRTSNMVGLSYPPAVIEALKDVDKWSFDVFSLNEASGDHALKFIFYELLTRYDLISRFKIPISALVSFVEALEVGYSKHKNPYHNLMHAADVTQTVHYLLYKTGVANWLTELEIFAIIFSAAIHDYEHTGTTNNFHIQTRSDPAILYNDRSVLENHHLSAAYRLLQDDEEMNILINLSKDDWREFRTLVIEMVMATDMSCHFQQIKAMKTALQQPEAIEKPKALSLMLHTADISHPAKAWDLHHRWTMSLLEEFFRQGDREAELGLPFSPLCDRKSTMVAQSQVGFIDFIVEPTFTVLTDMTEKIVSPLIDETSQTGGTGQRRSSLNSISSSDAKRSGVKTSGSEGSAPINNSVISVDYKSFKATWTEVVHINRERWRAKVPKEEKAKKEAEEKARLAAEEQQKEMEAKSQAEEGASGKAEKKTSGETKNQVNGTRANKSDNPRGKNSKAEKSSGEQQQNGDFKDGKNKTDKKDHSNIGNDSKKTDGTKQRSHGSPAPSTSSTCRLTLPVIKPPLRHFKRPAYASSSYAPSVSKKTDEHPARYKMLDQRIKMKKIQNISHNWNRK

With `O=C(NO)c1ccc(-c2nc3ccccc3n3cccc23)cc1` [KV-24], in experiment [1], the Kd was about 2 µM. `O=C(NO)c1ccc(-c2nc3ccccc3c3ccccc23)cc1` [KV-30]: the “MERTK binding” value in experiment [2] is recorded as “potential binding”.
